Reference: article PMC6790288 (The journal of pain : official journal of the American Pain …, 2019)
Like-named read-outs stand apart in the source and are kept apart here.

Columns and labels:
[1] = system: healthy participants; assay: Drug-related adverse events
[2] = system: pupil diameter; assay: Pupillometry; assay type: in vivo, human; settings: trial A; for Pupil diameter, predose: before first dose of segment
[3] = for (+)-M1 Cssmax 90% CI (bioequivalence ratio desmetramadol vs tramadol) / (+)-M1 Cssmin 90% CI (bioequivalence ratio desmetramadol vs tramadol) / (−)-M1 Cssmax 90% CI (bioequivalence ratio desmetramadol vs tramadol) / (−)-M1 Cssmin 90% CI (bioequivalence ratio desmetramadol vs tramadol): bioequivalent if within .80 to 1.25
[4] = 12 participants, 5 days rifampicin, 100 mg oral tramadol; cited from earlier work
[5] = system: cold-induced pain; assay: Cold pressor test; assay type: in vivo, human
[6] = system: healthy participants; assay: Respiratory rate; settings: trial B (with paroxetine), n = 60; MPD (SD)
[7] = cited from earlier work
[8] = system: healthy participants; assay: Abuse liability visual analog scales; assay type: in vivo, human; settings: trial A, n = 43, 0–100 mm VAS after seventh dose, M (SD)
[9] = biological target: μ-opioid receptor; settings: read-out: μ-opioid receptor affinity (Ki); in vitro, racemic M5; cited from earlier work
[10] = in vivo, po; cited from earlier work
[11] = system: serotonin reuptake transporter; settings: cited from earlier work
[12] = biological target: norepinephrine transporter; settings: read-out: norepinephrine transporter Ki; in vitro functional potency; cited from earlier work
[13] = trial A, listed as desmetramadol

Compound: CN(C)C[C@H]1CCCC[C@]1(O)c1cccc(O)c1 [Desmetramadol, O-desmethyltramadol]
- Deaths ([1]; trial A): 0(0) n (%)
- Severe AEs ([1]; trial A): 0 (0) n (%)
- participants reporting drug-related AEs ([1]; trial A): 44%
- Dizziness ([1]; trial A, all): 6(14) n (%)
- Euphoria ([1]; trial A, all): 0 (0) n (%)
- Feel abnormal ([1]; trial A, all): 0 (0) n (%)
- Feel hot ([1]; trial A, all): 0 (0) n (%)
- Headache ([1]; trial A, all): 3 (7) n (%)
- Nausea ([1]; trial A, all): 8(19) n (%)
- Presyncope ([1]; trial A, all): 0 (0) n (%)
- Pruritus ([1]; trial A, all): 3 (7) n (%)
- Somnolence ([1]; trial A, all): 3 (7) n (%)
- Spasticity ([1]; trial A, all): 0 (0) n (%)
- Sweating ([1]; trial A, all): 0 (0) n (%)
- Vomiting ([1]; trial A, all): 1 (2) n (%)
- Dizziness ([1]; trial A, male): 6(14) n (%)
- Euphoria ([1]; trial A, male): 0 (0) n (%)
- Feel abnormal ([1]; trial A, male): 0 (0) n (%)
- Feel hot ([1]; trial A, male): 0 (0) n (%)
- Headache ([1]; trial A, male): 3 (7) n (%)
- Nausea ([1]; trial A, male): 8(19) n (%)
- Presyncope ([1]; trial A, male): 0 (0) n (%)
- Pruritus ([1]; trial A, male): 3 (7) n (%)
- Somnolence ([1]; trial A, male): 3 (7) n (%)
- Spasticity ([1]; trial A, male): 0 (0) n (%)
- Sweating ([1]; trial A, male): 0 (0) n (%)
- Vomiting ([1]; trial A, male): 1 (2) n (%)
- All drug-related AEs ([1]; trial A, n = 43 (all male)): 19 (44) n (%)
- Deaths ([1]; trial B): 0 (0) n (%)
- Severe AEs ([1]; trial B): 0 (0) n (%)
- participants reporting drug-related AEs ([1]; trial B (with paroxetine)): 67%
- All drug-related AEs ([1]; trial B (with paroxetine), n = 60): 40 (67) n (%)
- Dizziness ([1]; trial B, all): 12 (20) n (%)
- Euphoria ([1]; trial B, all): 2 (3) n (%)
- Feel abnormal ([1]; trial B, all): 3 (5) n (%)
- Feel hot ([1]; trial B, all): 3 (5) n (%)
- Headache ([1]; trial B, all): 10(17) n (%)
- Nausea ([1]; trial B, all): 16(27) n (%)
- Presyncope ([1]; trial B, all): 6(10) n (%)
- Pruritus ([1]; trial B, all): 4 (7) n (%)
- Somnolence ([1]; trial B, all): 10(17) n (%)
- Spasticity ([1]; trial B, all): 3 (5) n (%)
- Sweating ([1]; trial B, all): 2 (3) n (%)
- Vomiting ([1]; trial B, all): 9(15) n (%)
- Dizziness ([1]; trial B, female): 5 (28) n (%)
- Euphoria ([1]; trial B, female): 1 (6) n (%)
- Feel abnormal ([1]; trial B, female): 1 (6) n (%)
- Feel hot ([1]; trial B, female): 1 (6) n (%)
- Headache ([1]; trial B, female): 6(33) n (%)
- Nausea ([1]; trial B, female): 5 (28) n (%)
- Presyncope ([1]; trial B, female): 3(17) n (%)
- Pruritus ([1]; trial B, female): 3(17) n (%)
- Somnolence ([1]; trial B, female): 6(33) n (%)
- Spasticity ([1]; trial B, female): 0 (0) n (%)
- Sweating ([1]; trial B, female): 0 (0) n (%)
- Vomiting ([1]; trial B, female): 3(17) n (%)
- Dizziness ([1]; trial B, male): 7(17) n (%)
- Euphoria ([1]; trial B, male): 1 (2) n (%)
- Feel abnormal ([1]; trial B, male): 2 (5) n (%)
- Feel hot ([1]; trial B, male): 2 (5) n (%)
- Headache ([1]; trial B, male): 4(10) n (%)
- Nausea ([1]; trial B, male): 11 (26) n (%)
- Presyncope ([1]; trial B, male): 3 (7) n (%)
- Pruritus ([1]; trial B, male): 1 (2) n (%)
- Somnolence ([1]; trial B, male): 4(10) n (%)
- Spasticity ([1]; trial B, male): 3 (7) n (%)
- Sweating ([1]; trial B, male): 2 (5) n (%)
- Vomiting ([1]; trial B, male): 6(14) n (%)
- pupil diameter, mean paired reduction compared with placebo ([2]; after dosing, mean (SD)): −1.1 (.8) mm
- Pupil diameter, after seventh dose ([2]; n = 43, M (SD)): 5.1 (1.2) mm
- Pupil diameter, predose ([2]; n = 43, M (SD)): 6.0 (1.1) mm
- Pupil diameter, predose ([2]; n = 43, M (SD), listed as desmetramadol): 6.0 [1.1] mm
- change of (+)-M1 Cssmax, trial B (paroxetine) compared with trial A ([3]; steady state plasma): 41%
- change of (+)-M1 Cssmin, trial B (paroxetine) compared with trial A ([3]; steady state plasma): 46%
- (−)-M1 Cssmin and Cssmax lower for desmetramadol compared with tramadol ([3]; trial A): 30%
- mean (+)-M1 in the poor metabolizer ([3]; trial A, CYP2D6 poor metabolizer): 41 ng/mL
- mean (+)-M1 in the ultrarapid metabolizer ([3]; trial A, CYP2D6 ultrarapid metabolizer): 22 ng/mL
- increase of mean desmetramadol (+)-M1 compared with tramadol (+)-M1 ([3]; trial A, poor metabolizer): 650%
- decrease of mean desmetramadol (+)-M1 compared with tramadol (+)-M1 ([3]; trial A, ultrarapid metabolizer): 40%
- (+)-M1 Cssmax 90% CI (bioequivalence ratio desmetramadol vs tramadol) ([3]; trial A): .88–1.13
- (+)-M1 Cssmin 90% CI (bioequivalence ratio desmetramadol vs tramadol) ([3]; trial A): .85–1.08
- (−)-M1 Cssmax 90% CI (bioequivalence ratio desmetramadol vs tramadol) ([3]; trial A): .67-.76
- (−)-M1 Cssmin 90% CI (bioequivalence ratio desmetramadol vs tramadol) ([3]; trial A): .69-.76
- (+)-M1 Cssmax 90% CI (bioequivalence ratio desmetramadol vs tramadol) [3, 13]: .88 −1.13
- (+)-M1 Cssmin 90% CI (bioequivalence ratio desmetramadol vs tramadol) [3, 13]: .85−1.08
- (−)-M1 Cssmax 90% CI (bioequivalence ratio desmetramadol vs tramadol) [3, 13]: .67 −.76
- (−)-M1 Cssmin 90% CI (bioequivalence ratio desmetramadol vs tramadol) [3, 13]: .69−.76
- desmetramadol (+)-M1 Cssmin and Cssmax exceed corresponding tramadol values ([3]; trial B (with paroxetine)): 3.5 fold
- (+)-M1 Cssmax 90% CI (bioequivalence ratio desmetramadol vs tramadol) ([3]; trial B (with paroxetine)): 3.4–4.3
- (+)-M1 Cssmin 90% CI (bioequivalence ratio desmetramadol vs tramadol) ([3]; trial B (with paroxetine)): 3.4–4.3
- (−)-M1 Cssmax 90% CI (bioequivalence ratio desmetramadol vs tramadol) ([3]; trial B (with paroxetine)): .93–1.07
- (−)-M1 Cssmin 90% CI (bioequivalence ratio desmetramadol vs tramadol) ([3]; trial B (with paroxetine)): .95–1.09
- increase of steady-state (−)-M1 by paroxetine ([3]; trial B vs trial A): approximately 15%
- increase of plasma (+)-M1 by paroxetine ([3]; trial B vs trial A, steady state): approximately 40%
- decrease of AUC by rifampicin induction [4]: 54%
- increase of M1 formation rate by rifampicin induction [4]: 12%
- average duration of tolerance to pain ([5]; trial A): 63 s
- tolerance to pain, mean paired increase relative to placebo ([5]; trial A, mean [SE]): 12.6 [3.8] seconds
- pain tolerated longer after desmetramadol than after tramadol ([5]; trial B (with paroxetine), male participants): 44%
- tolerance to pain, mean paired increase relative to placebo ([5]; trial B (with paroxetine), male participants, mean [SE]): 9.9 [1.9] seconds
- change in paired cold-induced pain scores at 30 seconds compared with placebo ([5]; trial B (with paroxetine), male population n = 42, mean [SE]): −.75 [.28] 0−10 VAS
- Average postdose respiratory rate, mean paired difference versus placebo [6]: −.30 [.90] min^−1
- lethal M1 blood concentrations exceed therapeutic levels [7]: ≤ 50 fold
- Drug liking-disliking [8]: 47 (25) mm
- Strength of drug effect [8]: 29 (28) mm
- Take drug again [8]: 43 (26) mm
- Strength of drug effect ([8]; listed as desmetramadol): 29 [28] mm

Compound: CNCC1CCCCC1(O)c1cccc(O)c1 (stereo not shown) [M5, O,N-didesmethyltramadol]
- Ki [9]: 100 nM

Compound: COc1ccc2c3c1O[C@H]1C(=O)CC[C@H]4[C@@H](C2)N(C)CC[C@]314 [Hydrocodone, hydrocodone]
- lethal oral dose [10]: 90 mg

Compound: COc1ccc2c3c1O[C@H]1C(=O)CC[C@@]4(O)[C@@H](C2)N(C)CC[C@]314 [Oxycodone, oxycodone]
- lethal oral dose [10]: 40 mg

Compound: CC[C@@H](c1cccc(O)c1)[C@@H](C)CN(C)C [Tapentadol]
- activity at the serotonin reuptake transporter [11]: no activity
- Ki [12]: 480 nM
